Laboratory results taken from ChEMBL document CHEMBL5131538 (J Med Chem, 2022).

How the values were obtained:
[1] = biological target: T1, Mineralocorticoid receptor (Rattus norvegicus, UniProt P22199)
T1 sequence (P22199 whole entry): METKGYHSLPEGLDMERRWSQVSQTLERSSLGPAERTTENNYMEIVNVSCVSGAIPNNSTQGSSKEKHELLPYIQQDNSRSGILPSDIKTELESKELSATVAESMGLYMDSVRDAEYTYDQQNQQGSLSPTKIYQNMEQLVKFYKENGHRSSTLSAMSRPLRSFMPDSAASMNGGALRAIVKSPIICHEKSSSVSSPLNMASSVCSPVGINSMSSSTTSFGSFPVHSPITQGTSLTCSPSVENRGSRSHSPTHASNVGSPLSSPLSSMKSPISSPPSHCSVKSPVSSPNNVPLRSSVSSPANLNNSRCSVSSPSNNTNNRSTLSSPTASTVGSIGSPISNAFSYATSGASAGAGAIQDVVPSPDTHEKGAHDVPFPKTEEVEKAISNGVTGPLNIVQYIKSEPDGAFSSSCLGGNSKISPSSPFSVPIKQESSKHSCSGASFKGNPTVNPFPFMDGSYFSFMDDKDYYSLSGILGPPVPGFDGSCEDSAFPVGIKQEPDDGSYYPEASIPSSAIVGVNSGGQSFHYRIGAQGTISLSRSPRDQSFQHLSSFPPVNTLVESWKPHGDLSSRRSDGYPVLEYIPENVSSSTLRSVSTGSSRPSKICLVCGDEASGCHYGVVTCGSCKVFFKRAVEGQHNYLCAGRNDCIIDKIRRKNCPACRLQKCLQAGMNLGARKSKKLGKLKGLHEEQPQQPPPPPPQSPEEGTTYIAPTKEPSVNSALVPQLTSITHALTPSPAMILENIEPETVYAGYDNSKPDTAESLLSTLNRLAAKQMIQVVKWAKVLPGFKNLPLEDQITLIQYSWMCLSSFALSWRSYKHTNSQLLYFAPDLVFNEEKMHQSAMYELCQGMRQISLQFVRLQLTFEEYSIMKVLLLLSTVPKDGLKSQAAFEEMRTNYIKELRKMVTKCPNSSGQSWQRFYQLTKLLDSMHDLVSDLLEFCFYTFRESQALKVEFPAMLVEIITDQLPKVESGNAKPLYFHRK
Description: Displacement of [3H]-aldosterone from rat mineralocorticoid receptor incubated overnight by liquid scintillation counting analysis

Glucocorticoid receptor [2] = biological target: T2, Glucocorticoid receptor (Rattus norvegicus, UniProt P06536); assay: Displacement of [3H]-dexamethasone from rat glucocorticoid receptor incubated overnight by liquid scintillation counting analysis
T2 sequence (P06536 whole entry): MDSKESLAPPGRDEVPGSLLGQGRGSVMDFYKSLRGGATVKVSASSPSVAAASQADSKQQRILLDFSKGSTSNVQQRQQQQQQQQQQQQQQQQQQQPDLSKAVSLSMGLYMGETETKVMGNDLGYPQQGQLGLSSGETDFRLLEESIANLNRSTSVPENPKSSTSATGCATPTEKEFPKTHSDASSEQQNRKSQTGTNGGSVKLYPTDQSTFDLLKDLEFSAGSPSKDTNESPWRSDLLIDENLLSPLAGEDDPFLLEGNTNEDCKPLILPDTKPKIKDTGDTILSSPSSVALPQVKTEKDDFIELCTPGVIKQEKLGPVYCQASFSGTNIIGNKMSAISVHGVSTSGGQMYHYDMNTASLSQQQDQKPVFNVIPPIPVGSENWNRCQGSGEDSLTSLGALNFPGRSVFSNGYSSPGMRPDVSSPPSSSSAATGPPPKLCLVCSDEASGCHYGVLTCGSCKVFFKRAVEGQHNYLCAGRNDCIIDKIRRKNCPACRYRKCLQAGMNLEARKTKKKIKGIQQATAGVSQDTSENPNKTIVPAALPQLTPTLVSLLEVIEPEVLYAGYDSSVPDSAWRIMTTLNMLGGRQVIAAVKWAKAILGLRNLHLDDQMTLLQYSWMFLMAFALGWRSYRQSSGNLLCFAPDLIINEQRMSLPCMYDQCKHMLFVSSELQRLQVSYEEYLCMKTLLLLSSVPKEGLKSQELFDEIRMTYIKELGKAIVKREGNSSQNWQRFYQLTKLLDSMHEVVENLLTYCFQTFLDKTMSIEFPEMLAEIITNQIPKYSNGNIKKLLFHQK

[3] = biological target: T3, Mineralocorticoid receptor (Homo sapiens, UniProt P08235); assay: biochemical
T3 sequence (P08235 whole entry): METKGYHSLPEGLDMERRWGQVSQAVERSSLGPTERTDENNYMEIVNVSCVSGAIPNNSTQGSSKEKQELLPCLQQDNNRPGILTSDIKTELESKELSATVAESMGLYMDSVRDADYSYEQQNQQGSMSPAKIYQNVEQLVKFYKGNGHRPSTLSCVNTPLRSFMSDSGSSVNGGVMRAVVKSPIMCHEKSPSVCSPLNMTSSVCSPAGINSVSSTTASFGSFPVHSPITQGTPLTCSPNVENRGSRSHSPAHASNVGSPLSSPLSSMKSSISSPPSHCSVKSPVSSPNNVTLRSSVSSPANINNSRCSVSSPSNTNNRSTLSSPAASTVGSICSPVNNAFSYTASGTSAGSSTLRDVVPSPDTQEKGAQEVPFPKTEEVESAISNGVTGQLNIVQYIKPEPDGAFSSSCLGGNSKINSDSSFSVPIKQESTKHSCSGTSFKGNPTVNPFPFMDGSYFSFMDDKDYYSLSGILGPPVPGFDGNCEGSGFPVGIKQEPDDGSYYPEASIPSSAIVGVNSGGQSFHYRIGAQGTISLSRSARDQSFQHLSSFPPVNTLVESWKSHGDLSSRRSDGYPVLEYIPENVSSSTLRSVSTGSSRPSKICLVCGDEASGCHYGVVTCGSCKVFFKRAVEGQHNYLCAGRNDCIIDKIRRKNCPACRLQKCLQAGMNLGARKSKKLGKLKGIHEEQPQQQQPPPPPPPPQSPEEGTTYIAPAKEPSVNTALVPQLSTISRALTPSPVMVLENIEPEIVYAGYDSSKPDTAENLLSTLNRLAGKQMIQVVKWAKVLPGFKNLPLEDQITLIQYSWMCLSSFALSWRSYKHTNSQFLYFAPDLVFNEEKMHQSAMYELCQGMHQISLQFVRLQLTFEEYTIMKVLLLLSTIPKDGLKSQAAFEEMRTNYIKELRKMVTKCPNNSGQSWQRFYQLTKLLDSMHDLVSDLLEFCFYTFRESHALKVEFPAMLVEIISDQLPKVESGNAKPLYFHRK
Description: Displacement of [3H]-aldosterone from recombinant human mineralocorticoid receptor expressed in baculovirus infected insect cells incubated overnight by liquid scintillation counting analysis

[4] = biological target: T4, Mineralocorticoid receptor (Homo sapiens) (UniProt P08235); assay: Antagonist activity at human wild-type mineralocorticoid receptor expressed in CHO-K1 cells assessed as inhibition of aldosterone-induced transcriptional activity incubated for 24 hrs in presence of 1 nM aldosterone by Steady-Glo reagent based reporter gene assay relative to control; assay type: cell-based; design: scale not given: the % may be the effect or the level left; conditions: filed as antagonist
T4 sequence (whole entry): T3 sequence (P08235 whole entry)

CHO-K1 = assay: Antagonist activity at human mineralocorticoid receptor S810L mutant expressed in CHO-K1 cells assessed as inhibition of aldosterone-induced transcriptional activity at 300 nM incubated for 24 hrs in presence of aldosterone at 0.5 nM by reporter gene assay relative to control; assay type: cell-based; design: scale not given: the % may be the effect or the level left; conditions: filed as antagonist
Glucocorticoid receptor [5] = biological target: T5, Glucocorticoid receptor (Homo sapiens, UniProt P04150); assay: biochemical
T5 sequence (P04150 whole entry): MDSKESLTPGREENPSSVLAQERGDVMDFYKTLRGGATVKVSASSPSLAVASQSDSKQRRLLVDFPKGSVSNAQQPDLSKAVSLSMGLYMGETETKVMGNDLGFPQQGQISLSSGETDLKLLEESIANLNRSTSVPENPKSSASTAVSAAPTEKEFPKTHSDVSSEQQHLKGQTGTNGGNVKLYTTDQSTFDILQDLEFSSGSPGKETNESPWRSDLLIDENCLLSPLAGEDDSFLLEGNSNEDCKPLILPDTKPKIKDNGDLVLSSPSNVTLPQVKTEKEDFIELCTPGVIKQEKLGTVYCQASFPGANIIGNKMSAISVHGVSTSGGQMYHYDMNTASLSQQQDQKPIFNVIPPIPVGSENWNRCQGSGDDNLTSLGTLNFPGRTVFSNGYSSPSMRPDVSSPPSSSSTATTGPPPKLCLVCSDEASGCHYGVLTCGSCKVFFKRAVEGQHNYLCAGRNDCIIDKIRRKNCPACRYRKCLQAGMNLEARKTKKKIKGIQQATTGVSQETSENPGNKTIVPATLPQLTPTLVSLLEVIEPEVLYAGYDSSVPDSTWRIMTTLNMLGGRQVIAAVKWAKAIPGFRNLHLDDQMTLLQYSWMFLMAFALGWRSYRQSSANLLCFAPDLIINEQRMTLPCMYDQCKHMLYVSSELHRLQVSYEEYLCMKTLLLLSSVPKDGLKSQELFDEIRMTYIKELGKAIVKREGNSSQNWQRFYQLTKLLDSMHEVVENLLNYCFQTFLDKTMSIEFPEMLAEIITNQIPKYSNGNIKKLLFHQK
Description: Displacement of [3H]-dexamethasone from recombinant full length human glucocorticoid receptor expressed in baculovirus infected insect cells incubated overnight by liquid scintillation counting analysis

| Compound | Ki [1] [nM] | Ki (Glucocorticoid receptor [2]) [µM] | Ki [3] [nM] | Activity [4] [%] | Activity (CHO-K1) [%] | IC50 (Glucocorticoid receptor [5]) [µM] |
| --- | --- | --- | --- | --- | --- | --- |
| CS(=O)(=O)Nc1ccc2c(c1)OCC(=O)N2c1ccc(F)cc1 | 1750 | > 100 | – | – | – | – |
| CC(=O)Nc1ccc(C(C)(C)c2ccccc2)cc1 | > 100000 | > 100 | – | – | – | – |
| CS(=O)(=O)Nc1ccc(N(C(=O)c2ccccc2)c2ccccc2)cc1 | 1240 | 22.2 | 1270 | – | – | – |
| CC(C)(c1ccccc1)c1ccc(S(N)(=O)=O)cc1 | > 100000 | > 100 | – | – | – | – |
| CS(=O)(=O)Nc1ccc2c(c1)OC1(CC1)C(=O)N2c1ccc(F)cc1 | 549 | > 100 | 808 | – | – | – |
| CS(=O)(=O)Nc1ccc(N(Cc2ccccc2)c2ccccc2)cc1 | 357 | 29.1 | 147 | – | – | – |
| CC(=O)S[C@@H]1CC2=CC(=O)CC[C@]2(C)[C@H]2CC[C@@]3(C)[C@@H](CC[C@@]34CCC(=O)O4)[C@H]12 [SPIRONOLACTONE] | – | – | – | 98.3 | 58.5 | 6.05 |
| CC(C)(c1ccccc1)c1ccc(NS(C)(=O)=O)cc1 | 1960 | 40 | 740 | – | – | – |
| CS(=O)(=O)Nc1ccc(N(C(=O)c2ccccc2)c2ccc(F)cc2)cc1 | – | 41.5 | – | – | – | – |
| CNS(=O)(=O)c1ccc(C(C)(C)c2ccccc2)cc1 | 4310 | > 100 | 1370 | – | – | – |
| CC(C)(c1ccccc1)c1cccc(NS(C)(=O)=O)c1 | 12000 | 19.6 | – | – | – | – |
| CS(=O)(=O)Nc1ccc2c(c1)OC1(CCC1)C(=O)N2c1ccc(F)cc1 | 626 | > 100 | 152 | – | – | – |
| CC(C)(c1ccccc1)c1ccc(NS(=O)(=O)C(F)(F)F)cc1 | > 100000 | > 100 | – | – | – | – |
| CCN(c1ccccc1)c1ccc(NS(C)(=O)=O)cc1 | 1560 | 45 | 607 | – | – | – |
| CN(C)S(=O)(=O)Nc1ccc(C(C)(C)c2ccccc2)cc1 | 6880 | 29 | – | – | – | – |
| CS(=O)(=O)Nc1ccc(Nc2ccccc2)cc1 | > 100000 | > 100 | – | – | – | – |
| CCS(=O)(=O)Nc1ccc(C(C)(C)c2ccccc2)cc1 | 3770 | 37.9 | 1920 | – | – | – |
| CN(c1ccccc1)c1ccc(NS(C)(=O)=O)cc1 | 853 | 47.2 | 735 | – | – | – |
| CC1Oc2cc(NS(C)(=O)=O)ccc2N(c2ccc(F)cc2)C1=O (centres undefined) | 201 | 136 | 160 | – | – | – |
| CS(=O)(=O)Nc1ccc2c(c1)OC(c1ccccc1)C(=O)N2c1ccc(F)cc1 (centres undefined) | 250 | 55.2 | 342 | – | – | – |
| CC(=O)c1ccc(N(Cc2ccccc2)c2ccc(NS(C)(=O)=O)cc2)cc1 | 5670 | 25.4 | – | – | – | – |
| CC1(C)CN(c2ccc(F)cc2)c2ccc(NS(C)(=O)=O)cc2O1 | – | 43.2 | – | – | – | – |
